Experimental data: the supplement of paper PMC11208160

Test: recombinant UMI read abundance after kanamycin selection (control-corrected) (log10(CPM+1)); higher = more efficient recombination; extreme values may be limits of the assay; sequences stand for … in AGTGCAGAGAAAATCGGCCAGTTTTCTCTGCCTGCAGTCCGCATGCCGTGGGACCCCTTGGGTTCTAACCTGTTGCCTAGATTTATGCAGCGGACTGCCTTTCTCCCAAAGTGATAAACCGG…AGGTTGGTTTCACT; site = the 11-nt donor
Procedure, shortened: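 The measure is log10(CPM+1) for recombinant UMIs. These were PCR-amplified across the donor–target junction and sequenced after Escherichia coli carrying a donor and donor-binding-loop pair library and a target plasmid with T7-inducible IS621 bridge recombinase was plated on IPTG (0.07 mM) plus kanamycin or unselected. CPM were averaged over two replicates and scaled by control-derived factors.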
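Also: IS621 bridge recombinase in Escherichia coli cells against a fixed T5 target plasmid.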

Row | Sequence | recombinant UMI read abundance (log10)
1 | TGTATCTCATGGACCGGTTTTCCCGGTAATCCGTATTTGGG (site TGTATCTCTCC) | 0.0516
2 | TGTATGGCATGGACCGGTTTTCCCGGTAATCCGTATTTGAC (site TGTATGGCTGT) | 1.25
3 | TGTCACCCATGGACCGGTTTTCCCGGTAATCCGTATTTGGC (site TGTCACCCTGC) | 0
4 | TGTCCAACATGGACCGGTTTTCCCGGTAATCCGTATTTGTA (site AGTCCAACTTA) | 0.0568
5 | TGTCCAACATGGACCGGTTTTCCCGGTAATCCGTATTTGTA (site CGTCCAACTTA) | 0.338
6 | TGTCCAACATGGACCGGTTTTCCCGGTAATCCGTATTTGTA (site GGTCCAACTTA) | 0.0289
7 | TGTCCAACATGGACCGGTTTTCCCGGTAATCCGTATTTGTA (site TGTCCAACTTA) | 0.208
8 | TGTCCGGCATGGACCGGTTTTCCCGGTAATCCGTATTTGGC (site TGACCGGCTGC) | 0
9 | TGTCCGGCATGGACCGGTTTTCCCGGTAATCCGTATTTGGC (site TGCCCGGCTGC) | 0
10 | TGTCCGGCATGGACCGGTTTTCCCGGTAATCCGTATTTGGC (site TGGCCGGCTGC) | 0
11 | TGTCCGGCATGGACCGGTTTTCCCGGTAATCCGTATTTGGC (site TGTCCGGCTGC) | 0.541
12 | TGTCGAGCATGGACCGGTTTTCCCGGTAATCCGTATTTGTA (site TGTCGAGCTTA) | 0.92
13 | TGTCTACCATGGACCGGTTTTCCCGGTAATCCGTATTTGCG (site TGTCTACCTCG) | 0.0129
14 | TGTCTTGCATGGACCGGTTTTCCCGGTAATCCGTATTTGGG (site TGTCTTGCTCC) | 0.016
15 | TGTGAATCATGGACCGGTTTTCCCGGTAATCCGTATTTGTC (site TGTGAATCTGA) | 0.782
16 | TGTGCCACATGGACCGGTTTTCCCGGTAATCCGTATTTGTT (site TGTGCCACTAA) | 0.0457
17 | TGTGCGGCATGGACCGGTTTTCCCGGTAATCCGTATTTGCT (site TATGCGGCTAG) | 0.00771
18 | TGTGCGGCATGGACCGGTTTTCCCGGTAATCCGTATTTGCT (site TCTGCGGCTAG) | 0.00448
19 | TGTGCGGCATGGACCGGTTTTCCCGGTAATCCGTATTTGCT (site TGTGCGGCTAG) | 0.57
20 | TGTGCGGCATGGACCGGTTTTCCCGGTAATCCGTATTTGCT (site TTTGCGGCTAG) | 0.00385
21 | TGTGGTCCATGGACCGGTTTTCCCGGTAATCCGTATTTGTC (site TGTGGTCCTGA) | 0
22 | TGTTACCCATGGACCGGTTTTCCCGGTAATCCGTATTTGTA (site TGTTACCCTTA) | 0.0142
23 | TGTTACCCATGGACCGGTTTTCCCGGTAATCCGTATTTGTA (site TGTTCCCCTTA) | 0.0074
24 | TGTTACCCATGGACCGGTTTTCCCGGTAATCCGTATTTGTA (site TGTTGCCCTTA) | 0.0124
25 | TGTTACCCATGGACCGGTTTTCCCGGTAATCCGTATTTGTA (site TGTTTCCCTTA) | 0

Row | Sequence | recombinant UMI read abundance (log10)
26 | TGTTAGCCATGGACCGGTTTTCCCGGTAATCCGTATTTGAC (site TGTTAGCCTGT) | 0
27 | TGTTCCCCATGGACCGGTTTTCCCGGTAATCCGTATTTGCA (site TGTTCCCCTTA) | 0.0177
28 | TGTTCCCCATGGACCGGTTTTCCCGGTAATCCGTATTTGCA (site TGTTCCCCTTC) | 0.0115
29 | TGTTCCCCATGGACCGGTTTTCCCGGTAATCCGTATTTGCA (site TGTTCCCCTTG) | 0.256
30 | TGTTCCCCATGGACCGGTTTTCCCGGTAATCCGTATTTGCA (site TGTTCCCCTTT) | 0.0133
31 | TGTTCCCCATGGACCGGTTTTCCCGGTAATCCGTATTTGTA (site AGTTCCCCTTA) | 0.355
32 | TGTTCCCCATGGACCGGTTTTCCCGGTAATCCGTATTTGTA (site CGTTCCCCTTA) | 0.193
33 | TGTTCCCCATGGACCGGTTTTCCCGGTAATCCGTATTTGTA (site GGTTCCCCTTA) | 0.00981
34 | TGTTCCCCATGGACCGGTTTTCCCGGTAATCCGTATTTGTA (site TATTCCCCTTA) | 0.0123
35 | TGTTCCCCATGGACCGGTTTTCCCGGTAATCCGTATTTGTA (site TCTTCCCCTTA) | 0.0139
36 | TGTTCCCCATGGACCGGTTTTCCCGGTAATCCGTATTTGTA (site TGATCCCCTTA) | 0.0165
37 | TGTTCCCCATGGACCGGTTTTCCCGGTAATCCGTATTTGTA (site TGCTCCCCTTA) | 0.377
38 | TGTTCCCCATGGACCGGTTTTCCCGGTAATCCGTATTTGTA (site TGGTCCCCTTA) | 0
39 | TGTTCCCCATGGACCGGTTTTCCCGGTAATCCGTATTTGTA (site TGTACCCCTTA) | 0.0227
40 | TGTTCCCCATGGACCGGTTTTCCCGGTAATCCGTATTTGTA (site TGTCCCCCTTA) | 0.136
41 | TGTTCCCCATGGACCGGTTTTCCCGGTAATCCGTATTTGTA (site TGTGCCCCTTA) | 0.013
42 | TGTTCCCCATGGACCGGTTTTCCCGGTAATCCGTATTTGTA (site TGTTACCCTTA) | 0.177
43 | TGTTCCCCATGGACCGGTTTTCCCGGTAATCCGTATTTGTA (site TGTTCACCTTA) | 0.00592
44 | TGTTCCCCATGGACCGGTTTTCCCGGTAATCCGTATTTGTA (site TGTTCCACTTA) | 0.0238
45 | TGTTCCCCATGGACCGGTTTTCCCGGTAATCCGTATTTGTA (site TGTTCCCCTAA) | 0.0105
46 | TGTTCCCCATGGACCGGTTTTCCCGGTAATCCGTATTTGTA (site TGTTCCCCTCA) | 0.0333
47 | TGTTCCCCATGGACCGGTTTTCCCGGTAATCCGTATTTGTA (site TGTTCCCCTGA) | 0
48 | TGTTCCCCATGGACCGGTTTTCCCGGTAATCCGTATTTGTA (site TGTTCCCCTTA) | 0.625
49 | TGTTCCCCATGGACCGGTTTTCCCGGTAATCCGTATTTGTA (site TGTTCCCCTTC) | 0.00924
50 | TGTTCCCCATGGACCGGTTTTCCCGGTAATCCGTATTTGTA (site TGTTCCCCTTG) | 0.00318

Row | Sequence | recombinant UMI read abundance (log10)
51 | TGTTCCCCATGGACCGGTTTTCCCGGTAATCCGTATTTGTA (site TGTTCCCCTTT) | 0.0256
52 | TGTTCCCCATGGACCGGTTTTCCCGGTAATCCGTATTTGTA (site TGTTCCGCTTA) | 0.0259
53 | TGTTCCCCATGGACCGGTTTTCCCGGTAATCCGTATTTGTA (site TGTTCCTCTTA) | 0.105
54 | TGTTCCCCATGGACCGGTTTTCCCGGTAATCCGTATTTGTA (site TGTTCGCCTTA) | 0.0106
55 | TGTTCCCCATGGACCGGTTTTCCCGGTAATCCGTATTTGTA (site TGTTCTCCTTA) | 0.0643
56 | TGTTCCCCATGGACCGGTTTTCCCGGTAATCCGTATTTGTA (site TGTTGCCCTTA) | 0.0058
57 | TGTTCCCCATGGACCGGTTTTCCCGGTAATCCGTATTTGTA (site TGTTTCCCTTA) | 0.381
58 | TGTTCCCCATGGACCGGTTTTCCCGGTAATCCGTATTTGTA (site TTTTCCCCTTA) | 0.0217
59 | TGTTGCCCATGGACCGGTTTTCCCGGTAATCCGTATTTGTA (site TGTTACCCTTA) | 0.032
60 | TGTTGCCCATGGACCGGTTTTCCCGGTAATCCGTATTTGTA (site TGTTCCCCTTA) | 0.324
61 | TGTTGCCCATGGACCGGTTTTCCCGGTAATCCGTATTTGTA (site TGTTGCCCTTA) | 0.0196
62 | TGTTGCCCATGGACCGGTTTTCCCGGTAATCCGTATTTGTA (site TGTTTCCCTTA) | 0.0108
63 | TGTTGTTCATGGACCGGTTTTCCCGGTAATCCGTATTTGAA (site TGTTGTTCTTT) | 0.472
64 | TTAACTGCATGGACCGGTTTTCCCGGTAATCCGTATTTGTG (site TTAACTGCTCA) | 0.697
65 | TTAACTGCATGGACCGGTTTTCCCGGTAATCCGTATTTGTG (site TTACCTGCTCA) | 0.00413
66 | TTAACTGCATGGACCGGTTTTCCCGGTAATCCGTATTTGTG (site TTAGCTGCTCA) | 0.00337
67 | TTAACTGCATGGACCGGTTTTCCCGGTAATCCGTATTTGTG (site TTATCTGCTCA) | 0.0133
68 | TTAAGCCCATGGACCGGTTTTCCCGGTAATCCGTATTTGGT (site TTAAGCCCTAC) | 0.174
69 | TTAATTCCATGGACCGGTTTTCCCGGTAATCCGTATTTGTT (site TTAATTCCTAA) | 0.0021
70 | TTACAATCATGGACCGGTTTTCCCGGTAATCCGTATTTGGG (site TTACAATCTCC) | 0
71 | TTACATTCATGGACCGGTTTTCCCGGTAATCCGTATTTGAC (site TTACATTCTGT) | 1.68
72 | TTACCATCATGGACCGGTTTTCCCGGTAATCCGTATTTGAC (site TTACCATCTGT) | 2.16
73 | TTACCTTCATGGACCGGTTTTCCCGGTAATCCGTATTTGTC (site TTACCTTCTGA) | 0.519
74 | TTAGAAACATGGACCGGTTTTCCCGGTAATCCGTATTTGAT (site TTAGAAACTAT) | 2.51
75 | TTAGAGGCATGGACCGGTTTTCCCGGTAATCCGTATTTGGA (site TTAGAGGCTTC) | 0.701
